From paper PMC10940605, “Design, synthesis and in vitro anticancer activity of some new lomefloxacin derivatives” (Scientific Reports, 2024)

Assays:
786-0 = assay: NCI-60 SRB screen; type: cell-based; settings: Homo sapiens; 786-0, 10^–5 Molar; read-out: Percent growth inhibition
Protocol: (§1) All newly synthesized compounds were selected and screened for anticancer activity against 60 human cancer cell lines representing 9 types of tumors including leukemia, melanoma, lung, colon, CNS, ovarian, renal, prostate, and breast cancers at the National Cancer Institute (NCI), Bethesda, USA. Screening was performed utilizing a single dose (10^−5 M concentration) and cells were incubated for 48 h. The end point was determined using sulforhodamine B (SRB) dye.
(§2) In this study, all the 16 newly synthesized compounds were submitted to the National Cancer Institute (USA) for anticancer evaluation and were selected and evaluated using 60 different human tumor cell lines representing lung, colon, CNS, ovarian, renal, prostate, breast cancers as well as leukemia and melanoma. A single dose (10^–5 Molar) was used for the initial screening for evaluation of anticancer activity. The 60 human cancer cell lines were provided by the national cancer institute biomedical research campus in Frederick, Maryland.
(§3) 60 different human cancer cell lines were utilized to screen the newly synthesized compounds for anticancer activity according to the previously reported standard procedure[24]–[26] as follows: • 96 well microtiter plates were used to inoculate the cells at […] ranging from 4000–5000 cells/well depending on the replication time of individual cell lines. Roswell Park Memorial Institute culture medium (RPMI 1640 medium) containing 2 mM L-glutamine and fetal bovine serum was used to grow the cells at 37 °C, 5% CO2, 95% air and 100% relative humidity for 24 h. • Fixation of cells in two plates of each cell line in situ was done using trichloroacetic acid (TCA). This represented the measurement of cell population at the time of drug addition (Tz). • Dimethyl sulfoxide (DMSO) was used to dissolve the synthesized compounds at 400-fold the desired final maximum concentration and frozen prior to use. This frozen concentrate was melted and diluted to twice the final concentration with complete medium containing 50 µg/mL gentamycin at time of drug addition. • The final compound concentration was obtained by adding 100 µL of the synthesized compounds to the appropriate microtiter wells already containing 100 µL followed by incubation of the plates at 37 °C, 5% CO2, 95% air and 100% relative humidity for 48 h. • Fixation of the cells was achieved by gentle addition of 50 µL of cold 50% (w/v) TCA followed by incubation for 60 min at 4 °C. The supernatant was then discarded and the plates are washed 5 times with tap water and air dried. • Sulphorhodamine B (SRB) solution (100 µL) at 0.4% (w/v) in 1% acetic acid was added to each plate followed by incubation for 10 min at room temperature. The unbound dye was then removed by washing five times with 1% acetic acid and plates were air dried. • Dissolution of the bound stain was done using […] trizma base and the absorbance was read at […] wavelength using an automated plate reader. • The percentage growth inhibition was calculated as follows: Ti-Tz/C-Tz×100forconcentrationswhichTi≥Tz Ti-Tz/Tz×100forconcentrationswhichTi<Tz • Time zero (Tz) • Control growth (C) • Test growth in the presence of drug (Ti)

A498 = assay: NCI-60 SRB screen; type: cell-based; settings: Homo sapiens; A498, 10^–5 Molar; read-out: Percent growth inhibition
Protocol: as §1, §2, §3

ACHN = assay: NCI-60 SRB screen; type: cell-based; settings: Homo sapiens, 10^–5 Molar, read-out: Percent growth inhibition
Protocol: as §1, §2, §3

BT-549 = assay: NCI-60 SRB screen; type: cell-based; settings: Homo sapiens; BT-549, 10^–5 Molar; read-out: Percent growth inhibition
Protocol: as §1, §2, §3

CAKI-1 = assay: NCI-60 SRB screen; type: cell-based; settings: Homo sapiens; CAKI-1, 10^–5 Molar; read-out: Percent growth inhibition
Protocol: as §1, §2, §3

HS 578T = assay: NCI-60 SRB screen; type: cell-based; settings: Homo sapiens, 10^–5 Molar, read-out: Percent growth inhibition
Protocol: as §1, §2, §3

K-562 = assay: NCI-60 SRB screen; type: cell-based; settings: Homo sapiens, K562; K-562, 10^–5 Molar; read-out: Percent growth inhibition
Protocol: as §1, §2, §3

LOX IMVI = assay: NCI-60 SRB screen; type: cell-based; settings: Homo sapiens, 10^–5 Molar, read-out: Percent growth inhibition
Protocol: as §1, §2, §3

M14 = assay: NCI-60 SRB screen; type: cell-based; settings: Homo sapiens; M14, 10^–5 Molar; read-out: Percent growth inhibition
Protocol: as §1, §2, §3

MALME-3M = assay: NCI-60 SRB screen; type: cell-based; settings: Homo sapiens, 10^–5 Molar, read-out: Percent growth inhibition
Protocol: as §1, §2, §3

MCF7 = assay: NCI-60 SRB screen; type: cell-based; settings: Homo sapiens; MCF7, 10^–5 Molar; read-out: Percent growth inhibition
Protocol: as §1, §2, §3

MDA-MB-231/ATCC = assay: NCI-60 SRB screen; type: cell-based; settings: Homo sapiens, 10^–5 Molar, read-out: Percent growth inhibition
Protocol: as §1, §2, §3

MDA-MB-435 = assay: NCI-60 SRB screen; type: cell-based; settings: Homo sapiens; MDA-MB-435, 10^–5 Molar; read-out: Percent growth inhibition
Protocol: as §1, §2, §3

MDA-MB-468 = assay: NCI-60 SRB screen; type: cell-based; settings: Homo sapiens; MDA-MB-468, 10^–5 Molar; read-out: Percent growth inhibition
Protocol: as §1, §2, §3

NCI-H23 = assay: NCI-60 SRB screen; type: cell-based; settings: Homo sapiens; NCI-H23, 10^–5 Molar; read-out: Percent growth inhibition
Protocol: as §1, §2, §3

NCI-H322M = assay: NCI-60 SRB screen; type: cell-based; settings: Homo sapiens, 10^–5 Molar, read-out: Percent growth inhibition
Protocol: as §1, §2, §3

NCI-H522 = assay: NCI-60 SRB screen; type: cell-based; settings: Homo sapiens; NCI-H522, 10^–5 Molar; read-out: Percent growth inhibition
Protocol: as §1, §2, §3

OVCAR-4 = assay: NCI-60 SRB screen; type: cell-based; settings: Homo sapiens; OVCAR-4, 10^–5 Molar; read-out: Percent growth inhibition
Protocol: as §1, §2, §3

OVCAR-5 = assay: NCI-60 SRB screen; type: cell-based; settings: Homo sapiens; OVCAR-5, 10^–5 Molar; read-out: Percent growth inhibition
Protocol: as §1, §2, §3

OVCAR-8 = assay: NCI-60 SRB screen; type: cell-based; settings: Homo sapiens; OVCAR-8, 10^–5 Molar; read-out: Percent growth inhibition
Protocol: as §1, §2, §3

PC-3 = assay: NCI-60 SRB screen; type: cell-based; settings: Homo sapiens; PC-3, 10^–5 Molar; read-out: Percent growth inhibition
Protocol: as §1, §2, §3

SF-268 = assay: NCI-60 SRB screen; type: cell-based; settings: Homo sapiens; SF-268, 10^–5 Molar; read-out: Percent growth inhibition
Protocol: as §1, §2, §3

SF-295 = assay: NCI-60 SRB screen; type: cell-based; settings: Homo sapiens; SF-295, 10^–5 Molar; read-out: Percent growth inhibition
Protocol: as §1, §2, §3

SF-539 = assay: NCI-60 SRB screen; type: cell-based; settings: Homo sapiens; SF-539, 10^–5 Molar; read-out: Percent growth inhibition
Protocol: as §1, §2, §3

SK-MEL-28 = assay: NCI-60 SRB screen; type: cell-based; settings: Homo sapiens; SK-MEL-28, 10^–5 Molar; read-out: Percent growth inhibition
Protocol: as §1, §2, §3

SNB-75 = assay: NCI-60 SRB screen; type: cell-based; settings: Homo sapiens; SNB-75, 10^–5 Molar; read-out: Percent growth inhibition
Protocol: as §1, §2, §3

U251 = assay: NCI-60 SRB screen; type: cell-based; settings: Homo sapiens, U-251; U251, 10^–5 Molar; read-out: Percent growth inhibition
Protocol: as §1, §2, §3

UACC-62 = assay: NCI-60 SRB screen; type: cell-based; settings: Homo sapiens; UACC-62, 10^–5 Molar; read-out: Percent growth inhibition
Protocol: as §1, §2, §3

UO-31 = assay: NCI-60 SRB screen; type: cell-based; settings: Homo sapiens; UO-31, 10^–5 Molar; read-out: Percent growth inhibition
Protocol: as §1, §2, §3

[1] = system: 60 human cancer cell lines; assay: NCI-60 SRB screen, whole panel; type: cell-based; settings: Homo sapiens, 48 h; One Dose Mean Graph, Conc 1.00E-5 Molar; read-out: Mean Growth Percent

`CCn1cc(C(=O)O)c(=O)c2cc(F)c(N3CCN(CC(=O)Nc4ccc(OC)cc4)C(C)C3)c(F)c21` (stereo not shown) [Compound 5c, 1-Ethyl-6,8-difluoro-7-(4-(2-((4-methoxyphenyl)amino)-2-oxoethyl)-3-methylpiperazin-1-yl)-4-oxo-1,4-dihydroquinoline-3-carboxylic acid] showed an inhibition at 10 µM (786-0) of 4.78%, an inhibition at 10 µM (A498) of 24.1% and an inhibition at 10 µM (ACHN) of 0.45%. For the same compound, the inhibition at 10 µM (BT-549) was 3.31%, the inhibition at 10 µM (CAKI-1) was 11.4% and the inhibition at 10 µM (HS 578T) was 8.53%. It also gave an inhibition at 10 µM (K-562) of 5.75%, an inhibition at 10 µM (LOX IMVI) of 14% and an inhibition at 10 µM (M14) of 2.85%. For the same compound, the inhibition at 10 µM (MALME-3M) was 3.82%, the inhibition at 10 µM (MCF7) was 1.91% and the inhibition at 10 µM (MDA-MB-231/ATCC) was 13.7%. For the same compound, the inhibition at 10 µM (MDA-MB-435) was 6.19%, the inhibition at 10 µM (MDA-MB-468) was 3.75% and the inhibition at 10 µM (NCI-H23) was 0.84%. The inhibition at 10 µM (NCI-H322M) was 5.28%, the inhibition at 10 µM (NCI-H522) was 6.89% and the inhibition at 10 µM (OVCAR-4) was 8.21%. For the same compound, the inhibition at 10 µM (OVCAR-5) was 0.25%, the inhibition at 10 µM (OVCAR-8) was 3.62% and the inhibition at 10 µM (PC-3) was 4.07%. It also gave an inhibition at 10 µM (SF-268) of 8.23%, an inhibition at 10 µM (SF-295) of 2% and an inhibition at 10 µM (SF-539) of 3.21%. The inhibition at 10 µM (SK-MEL-28) was 5.79%, the inhibition at 10 µM (SNB-75) was 12.8% and the inhibition at 10 µM (U251) was 0.32%. For the same compound, the inhibition at 10 µM (UACC-62) was 12.6%, the inhibition at 10 µM (UO-31) was 19.1% and the activity at 10 µM [1] was 98.8%. For the same compound, the melting point was 196 to 198 °C.
